Measured values reported in the METLIN SMRT retention time set (Domingo-Almenara et al. 2019).

Test: gradient 5% acetonitrile 3 min, to 50% in 2 min, to 85% in 15 min, held 3 min, 100 µL/min
Settings: column: Zorbax Extend-C18 2.1 x 50 mm; eluents: water / acetonitrile, 0.1% formic acid
In short: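 Retention times come from adduct peaks that were picked computationally and then checked by hand. The standards, pure and pooled in mixtures of ~100 molecules, were run on a Zorbax Extend-C18 column (2.1 × 50 mm, 1.8 μm) at 100 μL/min with water and acetonitrile, each with 0.1% formic acid. Detection was by quadrupole time-of-flight mass spectrometry in positive and negative ionization mode, with a dead volume of 40 μL and a dwell volume of 900 μL.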

| SMILES | RP-LC retention time |
| --- | --- |
| CCCS(=O)(=O)N1CCC(CCOC)(NC(=O)C2CC2)CC1 | 686 s |
| O=C(NCCN1CCOCC1)c1ccc2c(c1)CCCN2S(=O)(=O)c1ccc(Cl)cc1 | 689 s |
| CCCn1cc(C(=O)NCCCN(C)C)c(S(=O)(=O)N2CCN(c3ccc(Cl)cc3)CC2)n1 | 757 s |
| N#CCSc1nnc2n(CCC(=O)NC3CCCCC3)c(=O)c3ccccc3n12 | 687 s |
| Cc1nnc(-c2ccc3ccn(CC(=O)N4CCN(C5CCCCC5)CC4)c3c2)o1 | 620 s |
| COC(=O)C1=CN(c2ccc(Cl)cc2)c2ccc(F)cc2S1(=O)=O | 894 s |
| CCOc1ccc(S(=O)(=O)N2CCN(c3cnn4c(C)nnc4c3)CC2)cc1 | 714 s |
| CCCn1nnc(NCc2ccc(-c3cc(Cl)ccc3Cl)o2)n1 | 1180 s |
| Cc1cc(NC(=O)C2CCN(C(=O)c3cnn(-c4ccccc4)c3C)CC2)no1 | 657 s |
| CCS(=O)(=O)c1nc2ccc(NS(=O)(=O)c3cnc[nH]3)cc2s1 | 652 s |
| CCN1C(=O)c2ccccc2Oc2ccc(C(=O)NC3CCCCCC3)cc21 | 1050 s |
| COc1ccc(-c2noc(-c3nc(C(C)C)no3)n2)cc1OC | 1050 s |
| Cc1ccc(C2CCCN2C(=O)Cc2ccsc2)cc1 (centres undefined) | 632 s |
| O=C(Nc1cc(-c2cccs2)no1)C1CC1 | 803 s |
| CCN1CCN(c2cc(C)c3cc(NC(=O)c4ccc([N+](=O)[O-])c(C)c4)ccc3n2)CC1 | 621 s |
| O=C(CN1C(=O)CCc2cc(Br)ccc21)Nc1ccc2c(c1)OCCO2 | 912 s |
| Cc1cc(C)c(S(=O)(=O)N2CCN(C(=O)c3ccc4c(c3)OCO4)CC2)c(C)c1 | 912 s |
| Cn1c(=O)sc2cc(S(=O)(=O)N3CCC(C(=O)NC4CCCCC4)CC3)ccc21 | 822 s |
| COc1ccc(Cl)cc1NC(=O)c1[nH]c(C)c(S(=O)(=O)N2CCCC2)c1C | 1040 s |
| Cc1csc(NC(=O)Cn2nc3c(cc2=O)CCCC3)n1 | 683 s |
| O=C(c1cccn1Cc1noc(C2CC2)n1)N1CCN(c2ccccc2)CC1 | 946 s |
| Cc1ccc(NC(=O)C(=O)NCC2CCN(S(=O)(=O)C3CC3)CC2)cc1F | 828 s |
| O=C1CCCN1CCCNc1ccc2nnc(CCC(=O)N3CCN(c4ccccn4)CC3)n2n1 | 557 s |
| CCN(CC)S(=O)(=O)c1ccc2c(c1)CC(C(=O)N1CCCCCC1)N2C(C)=O (centres undefined) | 839 s |
| Cc1cc(C(=O)N[C@@H]2CN(c3ncccn3)C[C@H]2CO)c(C)o1 | 616 s |
| CC(C)CCNC(=O)C1CCCN(c2nc3ccsc3c(=O)n2Cc2ccc(F)cc2)C1 (centres undefined) | 954 s |

| SMILES | RP-LC retention time |
| --- | --- |
| CCOC(=O)c1[nH]c(C)c(CCC(=O)N2CCC(C(=O)NCCc3ccccc3)CC2)c1C | 795 s |
| O=C(Nc1ccc(F)cc1)C1CCCN(c2cnc3nccnc3c2)C1 (centres undefined) | 736 s |
| Cc1nc(N2CCN(c3ccccn3)CC2)c2c(C)c(C(=O)Nc3cccc(Cl)c3C)sc2n1 | 752 s |
| CC1CCN(c2cc(-c3noc(C(=O)NCCC4=CCCCC4)n3)ccn2)CC1 | 1100 s |
| Cc1ccc2c(=O)c3c([nH]c2c1C)CCN(CC(=O)Nc1ccc(F)cc1F)C3 | 615 s |
| Cc1ccc(CN(C(=O)COc2cc(C)c(Cl)c(C)c2)C2CCS(=O)(=O)C2)o1 (centres undefined) | 1030 s |
| C[C@]12CCC3C(CC[C@H]4C[C@H](O)CC[C@]34C)C1CC[C@@H]2C(=O)CO (some centres undefined) | 1020 s |
| Cc1nn(-c2ccc(Cl)cc2)c2sc(C(=O)O)cc12 | 1010 s |
| O=C(Nc1cnc(-c2cccnc2)nc1)C1CCC1 | 659 s |
| Cc1nc(C)c(C(=O)Nc2nc(-c3ccc4c(c3)CCCC4)cs2)s1 | 1170 s |
| COc1ccc(C(=O)N2CCc3ccc(C(=O)NCc4ccco4)cc32)cc1 | 795 s |
| Cn1cccc1C(=O)N1CCC2(CC1)NC(=O)N(Cc1ccccc1Cl)C2=O | 790 s |
| Cn1ncc2c3ccccc3n(CC(=O)NCCC3=CCCCC3)c2c1=O | 904 s |
| Cc1cc(C)c(CNC(=O)c2ccc(NC(=O)C3CC3)cc2N2CCOCC2)c(C)c1 | 901 s |
| Cc1noc(C)c1CC(=O)NCC1Cn2cccc2C(=O)N1C (centres undefined) | 598 s |
| Cc1c2c(nn1-c1ccc(SCC(=O)NC(C)C)nn1)CCC2 | 841 s |
| CCOC(=O)C1=C(CN2CC(C)CC(C)C2)NC(=O)NC1c1ccc(Cl)cc1 (centres undefined) | 688 s |
| Cn1cc(C2=CCN(C(=O)Nc3ccc(F)cc3F)CC2)c2cccnc21 | 792 s |
| O=C(C1CC1)N1CCC(Cc2noc(C3CC3)n2)C1 (centres undefined) | 686 s |
| NC(=NCc1ccc(Cl)cc1Cl)NC(=O)c1nc(Cl)c(N)nc1N | 770 s |
| Cc1cc(C2CCCN2C(=O)Cc2ccc(F)cc2Cl)no1 (centres undefined) | 851 s |
| CCN(CC)c1ncc2c(n1)CCC(C(=O)Nc1ccc(C(=O)OC)cc1)C2 (centres undefined) | 736 s |
| CC(C)NC(=O)C1CC(=O)N(C2CCCCC2)C1 (centres undefined) | 657 s |
| COc1ccc(S(=O)(=O)N2CCCOC2CNC(=O)C(=O)NC2CCCCC2)cc1 (centres undefined) | 822 s |
| COC(=O)c1ncn2c1C(=O)N(C1CC1)C(C)(C(=O)NCc1ccc(C)cc1)C2 (centres undefined) | 643 s |
| COC(=O)c1ncn2c1C(=O)N(c1ccc(C(C)C)cc1)C(C)(C(=O)NC1CCCC1)C2 (centres undefined) | 817 s |

Other lines, results leading:

| RP-LC retention time | SMILES |
| --- | --- |
| 728 s | O=C(c1ccc2[nH]ccc2c1)N1CCN(c2cc(-c3ccccc3)[nH]n2)CC1 |
| 582 s | Cc1cc2ncn(Cc3ccccc3F)c2cc1C |
| 844 s | CCn1ccc2c(cc(C(=O)Nc3ccc(Br)cc3)n2C)c1=O |
| 1160 s | CCCCCOC(=O)c1ccc(Nc2nc(C(=O)OCC)nc3ccccc23)cc1 |
| 951 s | Cc1ccc(S(=O)(=O)N2CCOCC2)cc1-c1nnc(-c2ccccc2Cl)o1 |
| 1090 s | CCOc1ccccc1-c1noc(Cn2c(=O)n(C(C)C)c(=O)c3ccccc32)n1 |
| 999 s | Cc1ccc(-c2noc(Cn3cnc4c(oc5ccccc54)c3=O)n2)cc1 |
| 1030 s | COc1ccc(N2CCN(c3cc(SCC(=O)Nc4ccc(C)c(F)c4)ncn3)CC2)cc1 |
| 698 s | Cc1cccc(NC(=O)Cn2cc(C(=O)N3CCCC3)c(=O)c3ccc(C)nc32)c1 |
| 675 s | O=C(NCc1ccccc1F)c1ccc2c(c1)CN(Cc1cccc(F)c1)CCO2 |
| 865 s | COc1ccc(N2CC(c3nc(-c4ccccc4F)no3)CC2=O)cc1 (centres undefined) |
| 704 s | O=C(CCNc1c(-c2ccc(F)cc2)nc2cnccn12)Nc1ccc2c(c1)OCCO2 |
| 930 s | Cc1nn(CC(=O)NC2CCCCCC2)c(=O)c2nc(-c3ccccc3)sc12 |
| 1050 s | C=CCN1C(=O)COc2ccc(-c3nc(NC(=O)c4ccccc4C)sc3C)cc21 |
| 747 s | CC1CCN(c2ccc(-c3cccc(NC(=O)NCc4ccccc4)c3)nn2)CC1 |
| 724 s | CCOc1ccc(Br)cc1S(=O)(=O)Nc1ccc(-c2cn3ccc(C)nc3n2)cc1 |
| 779 s | CC(=O)N(Cc1nn(C)c2c1CN(S(=O)(=O)c1ccccc1F)CC2)c1ccccc1 |
| 698 s | Cc1ccc(-c2nc(-c3ccc4c(c3)ncn4CCN3CCOCC3)no2)c(C)c1 |
| 700 s | CNC(=O)c1ccc(N2CCCN(Cc3ccccc3C)C2=O)cc1 |

| RP-LC retention time | SMILES |
| --- | --- |
| 993 s | COc1ccc(-n2cc(C(=O)OCC3CCCO3)c3ccccc3c2=O)cc1 (centres undefined) |
| 710 s | COc1ccc(CNc2nc3ccncc3n(Cc3ccccc3)c2=O)cc1 |
| 985 s | Cc1cc(C)c(NC(=O)Cn2nc3cc(-c4ccccc4)nc(C)n3c2=O)c(C)c1 |
| 1270 s | O=C(Nc1ccccc1-c1nc2ccccc2s1)c1c(F)cccc1F |
| 869 s | CCn1cc(S(=O)(=O)Nc2cc(F)ccc2C)c2cccnc21 |
| 889 s | Cc1ccc(Cn2c(=O)c(SCC(=O)NCC3CCCO3)nc3ccccc32)cc1 (centres undefined) |
| 1010 s | CCN1C(=O)COc2ccc(-c3nc(NC(=O)c4ccccc4Br)sc3C)cc21 |
| 821 s | COc1ccc(-c2nc3ncccn3c2Nc2ccc(C)c(Cl)c2)cc1 |
| 1350 s | CCn1cc(-c2nc(C(=O)Nc3ccc(F)cc3Cl)cs2)c2cccnc21 |
| 838 s | C=CCn1c(C)c(CC(=O)Nc2ccc(F)c(F)c2)c(=O)n2nc(-c3ccc(C)cc3)nc12 |
| 540 s | Cc1ccc(Nc2nc(NCc3cccnc3)nc3[nH]ncc23)cc1 |
| 604 s | O=C(c1cc(-c2ccncc2)nc2ccc(Cl)cc12)N1CCN(c2ccccn2)CC1 |
| 828 s | COc1ccc(-c2noc(Cn3c(=O)n(CC4CCCO4)c(=O)c4ccccc43)n2)cc1OC (centres undefined) |
| 955 s | CCCn1c(-c2cccc(C(=O)NC(C)c3ccc(C)cc3C)c2)nc2cccnc21 (centres undefined) |
| 739 s | COc1cccc(-c2nnc(SCC(=O)NCc3ccco3)n2-c2ccccc2)c1 |
| 898 s | O=C(Cn1cccc(-c2nc(-c3ccc(F)cc3)no2)c1=O)N1CCN(c2ccc(F)cc2)CC1 |
| 853 s | O=C(NCc1cccs1)c1nc2ccccn2c1-c1ccccc1 |
| 678 s | CN(Cc1ccccc1)C(=O)c1cn2ccncc2n1 |
